Measurements from patent US11433138B2, “Nanocarriers and intracellular delivery of same” (Georgia Tech Research Corporation, priority 2016, dated 2022).

What was measured:
rabbit IgG (IgGR) = test: Binding kinetics to biotinylated IgG immobilized on optical biosensors (rabbit IgG)
Protocol: (§1) Biotinylated IgG was immobilized onto optical biosensors to enable high throughput kinetic analyses in microplate format. The IgG-binding behavior to the Hex nanocarrier in comparison to soluble SPAB at neutral and acidic pH was assessed.

mouse IgG (IgGM) = test: Binding kinetics to biotinylated IgG immobilized on optical biosensors (mouse IgG)
Protocol: as §1

Substance: domain B of staphylococcal protein A [SPAB]
- Kd (rabbit IgG (IgGR); pH 5.0): 255 ± 17 nM
- Kd (rabbit IgG (IgGR); pH 7.4): 53 ± 2 nM
- stronger binding at neutral pH compared to pH 5.0 (mouse IgG (IgGM)): 17 fold
- affinities towards mouse IgG (in words) (mouse IgG (IgGM); neutral pH and pH 5.0): nanomolar
- Kd (mouse IgG (IgGM); pH 5.0): 470 ± 19 nM
- Kd (mouse IgG (IgGM); pH 7.4): 28.3 ± 2.8 nM
